Reference: US20230286906A1, “CANNABINOID DERIVATIVES” (CANOPY GROWTH CORPORATION, priority 2019, published 2023)
Where two headings read alike, the source gives them in different places.

Experiments:
human CB1 receptor = biological target: T1, human CB1 receptor (Homo sapiens, UniProt P21554); experiment: CB1 radioligand ([3H]CP 55,940) competitive binding assay
T1 construct: host or cells: CHO-K1 (Chinese hamster ovary) cells, stably transfected; membranes prepared in house

human CB2 receptor = biological target: T2, human CB2 receptor (Homo sapiens, UniProt P34972); experiment: CB2 radioligand ([3H]CP 55,940) competitive binding assay; details: for Selectivity CB2: fold difference in selectivity between CB1 and CB2 binding, shown in the column of the receptor with higher affinity
T2 construct: host or cells: CHO-K1 (Chinese hamster ovary) cells, stably transfected; membranes prepared in house
T2 sequence (P34972 whole entry): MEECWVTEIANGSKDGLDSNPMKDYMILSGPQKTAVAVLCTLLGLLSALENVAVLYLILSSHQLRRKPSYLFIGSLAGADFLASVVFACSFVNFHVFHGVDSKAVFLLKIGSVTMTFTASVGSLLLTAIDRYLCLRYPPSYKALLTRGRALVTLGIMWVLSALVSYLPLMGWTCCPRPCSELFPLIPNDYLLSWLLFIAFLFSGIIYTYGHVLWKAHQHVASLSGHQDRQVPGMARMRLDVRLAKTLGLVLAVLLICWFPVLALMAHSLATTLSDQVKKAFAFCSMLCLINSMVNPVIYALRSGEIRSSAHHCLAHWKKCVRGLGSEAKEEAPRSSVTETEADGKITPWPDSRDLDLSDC
Description: Compounds of the present disclosure were tested for CB1 receptor binding affinity and for CB2 receptor binding affinity. As used herein, “binding affinity” is represented by the IC50 value, which was experimentally determined as described herein. The lower the IC50 value the higher the binding affinity. A compound of the present disclosure may be said to have “binding selectivity” if it has a higher binding affinity for one receptor compared to the other.
The membranes were prepared from CHO-K1 (Chinese hamster ovary) cells stably transfected with the human CB2 receptor (Cat. #ES-111-C; Perkin Elmer, Boston, Mass.). The cells were grown adherently and maintained in Ham's F12 medium containing 10% fetal bovine serum (FBS), penicillin, streptomycin and geneticin (G418) at 37° C. in a humid atmosphere of 5% CO2 following the manufacturer's instructions.
For membrane preparation the cells were washed with PBS and scraped off the plates in cold homogenization buffer (25 mM HEPES (pH 7.4), 2 mM EDTA) containing protease inhibitor cocktail (Sigma Cat. #P8340). The cell suspension was homogenized with a Pro-PK-01200D Polytron Homogenizer (Pro Scientific) and then centrifuged for 30 min at 120,000×g. The supernatant was discarded and the pellet was re-suspended in the homogenization buffer and stored at −80° C. until the time of use.
In this experiment, 3H radiolabeled CP 55,940, i.e. [3H]CP 55,940 (Perkin Elmer, Boston, Mass.), was used as a radioligand for the CB2 receptor to determine the binding affinity of compounds for the CB2 receptor (Scheme 4; above).
The competition binding experiments (single dose and dose-response) were performed by incubating 0.6 nM of [3H]CP55,940 (specific activity 101 Ci/mmol, Perkin Elmer) and different concentrations of compounds disclosed herein with membranes prepared as above from CHO-K1 cells expressing human CB2 receptor (1 μg of protein/well), 50 mM Tris-HCl (pH 7.4), 5 mM MgCl2, 1 mM CaCl2, and 2 mg/mL BSA.
For the single dose experiments, the compound stocks (usually 10 mM in DMSO) were diluted to working stocks in the binding buffer to give the final compound concentrations of 10 μM and 1 μM. For the dose-response experiments the test compounds were sequentially diluted to provide the desired concentration range for the IC50 determination. In each case the compounds were pre-incubated with the membrane for 20 min, before adding the radioligand.
After incubation with the radioligand for 60 min at 37° C., the incubation was terminated by rapid filtration of assay mixture through MultiScreen®HTS^+ 96-well filter plates (Millipore, Cat. #MSFCNXB), pre-soaked for 60 min with 50 mM Tris-HCl (pH 7.4) containing 0.33% polyethylenimine (PEI). The nonspecific binding (NSB) was determined in the presence of 10 μM unlabelled CP55,940. After drying the filter plate at 50° C. for at least 60 min, the filter-bound radioactivity was determined by scintillation spectrometry using the 1450 MicroBeta Plate Counter (Perkin Elmer, Boston, Mass.). From the dose-response experiments, the IC50 values were determined (see Table 1, CB2 IC50).

[1] = displacement of 0.8 nM [3H]CP 55,940, CHO-K1 membranes expressing human CB1, read-out: CB1 IC50
[2] = displacement of 0.6 nM [3H]CP55,940, CHO-K1 membranes expressing human CB2, read-out: CB2 IC50

T1 sequence (P21554 whole entry): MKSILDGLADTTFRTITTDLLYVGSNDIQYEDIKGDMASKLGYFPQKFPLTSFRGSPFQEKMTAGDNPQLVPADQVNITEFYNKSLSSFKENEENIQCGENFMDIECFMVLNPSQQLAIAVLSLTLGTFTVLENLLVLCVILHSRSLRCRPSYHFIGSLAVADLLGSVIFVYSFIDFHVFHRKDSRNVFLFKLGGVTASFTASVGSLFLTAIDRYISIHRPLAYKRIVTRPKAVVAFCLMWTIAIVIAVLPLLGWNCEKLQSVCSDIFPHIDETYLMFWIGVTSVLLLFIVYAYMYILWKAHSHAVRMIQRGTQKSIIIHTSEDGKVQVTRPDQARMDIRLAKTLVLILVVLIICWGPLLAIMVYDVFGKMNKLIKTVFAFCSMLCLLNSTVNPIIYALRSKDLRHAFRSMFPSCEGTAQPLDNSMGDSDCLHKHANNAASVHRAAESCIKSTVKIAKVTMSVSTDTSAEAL

SMILES | IC50 (human CB1 receptor; [1]) [µM] | IC50 (human CB2 receptor; [2]) [nM] | Selectivity CB2 (human CB2 receptor) | IC50 (human CB1 receptor) [µM] | IC50 (human CB2 receptor) [nM]
CCCCCc1cc(O)c(C/C=C(\C)CCC=C(C)C)c(O)c1C(=O)NC [Compound 1, 3-(3,7-dimethylocta-2,6-dien-1-yl)-2,4-dihydroxy-N-methyl-6-pentylbenzamide] | > 5 | 1000 to 4990 | 4.06 |  | 
CCCCCc1c(CN(C)C(=O)OC)c(O)c(CC=C(C)CCC=C(C)C)c(O)c1CN(C)C(=O)OC [Compound 59, dimethyl ((5-(3,7-dimethylocta-2,6-dien-1-yl)-4,6-dihydroxy-2-pentyl-1,3-phenylene)bis(methylene))bis(methylcarbamate)] | 0.5 to 0.99 | 500 to 990 | 1.49 |  | 
CCCCCc1cc(O)c(C/C=C(\C)CCC=C(C)C)c(O)c1C(=O)NCc1cccnc1 [Compound 62, 3-(3,7-dimethylocta-2,6-dien-1-yl)-2,4-dihydroxy-6-pentyl-N-(pyridin-3-ylmethyl)benzamide] | 1 to 4.99 | 500 to 990 | 4.71 |  | 
CCCCCc1cc(O)c(CC=C(C)CCC=C(C)C)c(O)c1CN(C)C(=O)OC [Compound 58, methyl (3-(3,7-dimethylocta-2,6-dien-1-yl)-2,4-dihydroxy-6-pentylbenzyl)(methyl)carbamate] | 1 to 4.99 | < 500 | 30.00 |  | 
CCCCCc1cc(O)c(C/C=C(\C)CCC=C(C)C)c(O)c1C(=O)N1CCOCC1 [Compound 39] | > 5 | < 500 | 24.32 |  | 
CCCCCc1cc(O)c(C/C=C(\C)CCC=C(C)C)c(O)c1C(=O)Nc1ccccc1 [Compound 10, 3-(3,7-dimethylocta-2,6-dien-1-yl)-2,4-dihydroxy-6-pentyl-N-phenylbenzamide] | > 5 | 1000 to 4990 | 4.86 |  | 
CCCCCc1cc(O)c(C/C=C(\C)CCC=C(C)C)c(O)c1C(=O)N(CC)CC [Compound 50, 3-(3,7-dimethylocta-2,6-dien-1-yl)-N,N-diethyl-2,4-dihydroxy-6-pentylbenzamide] |  |  | 4.80 | > 5 | 1000 to 4990
CCCCCc1cc(O)c(C/C=C(\C)CCC=C(C)C)c(O)c1C(=O)NCc1ccccc1 [Compound 14, N-benzyl-3-(3,7-dimethylocta-2,6-dien-1-yl)-2,4-dihydroxy-6-pentylbenzamide] | > 5 | 1000 to 4990 | 8.57 |  | 
CCCCCc1cc(O)c(C/C=C(\C)CCC=C(C)C)c(O)c1C(=O)Nc1ccc(OC)cc1 [Compound 11, 3-(3,7-dimethylocta-2,6-dien-1-yl)-2,4-dihydroxy-N-(4-methoxyphenyl)-6-pentylbenzamide] | 1 to 4.99 | 500 to 990 | 2.35 |  | 
CCCCCc1cc(O)c(C/C=C(\C)CCC=C(C)C)c(O)c1C(=O)NCc1ccc(F)cc1 [Compound 61, 3-(3,7-dimethylocta-2,6-dien-1-yl)-N-(4-fluorobenzyl)-2,4-dihydroxy-6-pentylbenzamide] | 0.5 to 0.99 | < 500 | 118.29 |  | 
CCCCCc1cc(O)c(C/C=C(\C)CCC=C(C)C)c(O)c1C(=O)N1CCCC1 [Compound 41, (3-(3,7-dimethylocta-2,6-dien-1-yl)-2,4-dihydroxy-6-pentylphenyl)(pyrrolidin-1-yl)methanone] | > 5 | 1000 to 4990 | 11.54 |  | 
CCCCCc1cc(O)c(C/C=C(\C)CCC=C(C)C)c(O)c1C(=O)Nc1cccnc1 [Compound 63, 3-(3,7-dimethylocta-2,6-dien-1-yl)-2,4-dihydroxy-6-pentyl-N-(pyridin-3-yl) benzamide] |  |  | 2.20 | 1 to 4.99 | 1000 to 4990
CCCCCc1cc(O)c(C/C=C(\C)CCC=C(C)C)c(O)c1C(=O)NC1CC1 [Compound 6, N-cyclopropyl-3-(3,7-dimethylocta-2,6-dien-1-yl)-2,4-dihydroxy-6-pentylbenzamide] | 1 to 4.99 | 1000 to 4990 | 3.41 |  | 
CCCCCc1cc(O)c(C/C=C(\C)CCC=C(C)C)c(O)c1C(=O)Nc1ccc(F)cc1 [Compound 60, 3-(3,7-dimethylocta-2,6-dien-1-yl)-N-(4-fluorophenyl)-2,4-dihydroxy-6-pentyl benzamide] | 1 to 4.99 | < 500 | 2.52 |  | 
